Laboratory results reported in patent US8759311B2, “Use of siRNA targetting SIPA1L1 for the reduction of adipogenesis” (Sanofi, priority 2009, dated 2014).

B1: shLuc: control shRNA against the firefly luciferase protein (SEQ ID NO. 7) (nucleic acid)
chain: GATCCGTGCGTTGCTAGTACCAATTCAAGAGATTGGTACTAGCAACGCACTTTTTTACGCGTG
modifications: the letters are possibly those of the target site

Tests used:
C57BL/6J mice = experiment: high fat diet fed C57BL/6J mice treated with Rimonabant; format: in vivo, mouse; details: HFD mice, 10 mg.kg−1.day−1 for one month
Description: C57BL/6J mice, which are obesity-prone (Collins S. et al., 2004) were fed for 6 months with a high fat diet (HFD).

Sipa1l1 = experiment: retroviral shRNA transduction of 3T3-L1 cells, Sipa1l1 mRNA by RT-PCR; format: cell-based, mouse; details: day 0 prior differentiation
Experimental: 3T3-L1 cells were cultured in DMEM (Gibco) with 10% FBS (Gibco) at 5% CO2. After retroviral infection (see below), cells were allow to grow to confluence in either 100-mm or 60-mm dishes in DMEM with 10% FBS. Once confluence was reached, cells were exposed to differentiation medium containing dexamethasone (1 μM), insulin (5 μg/ml), and isobutylmethylxanthine ([…]) (DMI). After 2 days cells were maintained in medium containing insulin (5 μg/ml) until ready for harvest at 7 days.
Retroviruses were constructed in the RNAi-Ready pSIREN-RetroQ ZsGreen (pSIREN Clontech) or pMSCV puromycin plasmid (pMSCV, Clontech). Viral constructs were transfected using calcium-phosphate method described in Jordan M. et al (2004) into 293 HEK packaging cells along with constructs encoding gag-pol and the VSV-G protein. Supernatants were harvested after 48 h in presence of 3 μm of Trichostatin A (Sigma) and either used immediately or snap frozen and stored at −80° C. for later use. Viral supernatants were added to the cells for 6 hours in the presence of polybrene (4 μg/ml) and diluted two times with fresh medium for the next 15 hours.
Total RNA was isolated from cultured cells using peqGOLD TriFast reagent according to the manufacturer's instructions (Axonlab). First strand cDNA was synthesized from 0.5 μg of total RNA using random primers and Superscript II (Invitrogen). […]

Molecule	body weight (C57BL/6J mice)	glucose tolerance (C57BL/6J mice)	knockdown of Sipa1l1 mRNA (Sipa1l1)
Cc1c(C(=O)NN2CCCCC2)nn(-c2ccc(Cl)cc2Cl)c1-c1ccc(Cl)cc1 [Rimonabant]	normalize	normalized	
B1			no inhibition
